The values below come from US5958407A, “Ileus treatment method” (The Regents of the Uinversity of California, priority 1998, dated 1999).

Several values for one entry are separate records, joined by “and”; a condition that tells them apart may be missing. Equal values may be shown once. Read-outs that look alike come from different tables or passages of the source. No end group written: not given here.

Assay [1] concerns strips of rat proximal colon.
A further assay addresses T1, PAR-2 (Rattus norvegicus, UniProt Q63645).
T1 construct: endogenous in cells; host or cells: cultured colonic myocytes (rat)
T1 sequence (Q63645 26-397): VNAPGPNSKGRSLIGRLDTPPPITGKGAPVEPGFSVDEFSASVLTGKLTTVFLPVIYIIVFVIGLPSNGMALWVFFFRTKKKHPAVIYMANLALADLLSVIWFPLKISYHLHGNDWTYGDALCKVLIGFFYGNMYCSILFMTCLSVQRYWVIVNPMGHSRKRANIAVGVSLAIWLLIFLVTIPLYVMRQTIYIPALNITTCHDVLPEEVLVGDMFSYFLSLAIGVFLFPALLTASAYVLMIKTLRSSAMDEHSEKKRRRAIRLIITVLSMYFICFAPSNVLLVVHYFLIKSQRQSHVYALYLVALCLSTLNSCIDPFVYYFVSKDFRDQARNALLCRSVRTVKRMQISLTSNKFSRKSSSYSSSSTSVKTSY
The experiment in a line: Ca2+ mobilization by colonic myocytes (Fura-2). The assay is classed as cell-based. The conditions noted are these: for EC50: read-out: EC50, increase in [Ca2+]i. As to the method:
Ac. Ca^2+ Mobilization by Colonic Myocytes. The activation of PAR-2 in myocytes was assessed by measuring Ca^2+ mobilization, as described in Example 3.
(§1) Degranulation of HMC-1 cells (human mast cell line) with substance P was induced, and a filtrate for Ca^2+ responses in myocytes was assessed, to determine if mast cells release proteases that cleave and activate PAR-2.
(§2) Myocytes were incubated in physiological salt solution (PSS) with 2.5 μM Fura-2/AM for 20 min at 37° C. Fluorescence was measured in individual cells using an ICCD video camera (Stanford Photonics, Stanford, Calif.) and a video microscopy acquisition program (Axon Industries, Foster City, Calif.). Fluorescence was measured at 340 and 380 nm excitation and 510 nm emission. The ratio of the fluorescence at the two excitation wavelengths, which is proportional to the [Ca^2+ ]i, was calculated. Fresh cells were studied with each agonist and a minimum of 10 cells analyzed in 2-4 experiments on different days.
(In general: Calcium assays in cells follow changes in intracellular calcium, usually with a dye or a luminescent sensor.)

Assay [2] concerns the target T2, tryptase (Homo sapiens, UniProt Q15661). Briefly: Inhibition of the Ca2+ response of myocytes to HMC-1 mast cell filtrate. Type of assay: cell-based. More on the design: HMC-1 human mast cells; endogenous in cells; host or cells: HMC-1 human mast cells, filtrate after degranulation with substance P. Here is the method: as §1, §2
HMC-1 human mast cells (300 μl of 7×10^6 /ml in PSS containing 25 μg/ml heparin) were incubated with 100 μM substance P for 5 min at room temperature to induce degranulation. The suspension was filtered and assayed for stimulation of Ca^2+ mobilization.

Assay [3] concerns the target T2, tryptase. The experiment in a line: Ca2+ response of myocytes to tryptase pre-incubated with inhibitor. Type of assay: cell-based. Here is the method:
as §2

In assay [4] the test system is mice with cecal manipulation. The experiment in a line: GI transit in mice with surgically induced ileus. The assay is classed as in vivo. The conditions noted are these: 1 mg/kg orally 30 minutes prior to anesthesia. Here is the method:
GI transit was measured in fed mice by oral gavage pf 0.3 ml carmine red in methylcellulose. Whole GI transit time was defined as the appearance of the first red fecal pellet. Upper GI transit time was defined as the appearance as the percentage of the distance traveled along the small intestine by the marker in 30 minutes. Cecal manipulation for 5 minutes or skin incision alone was performed under halothane anesthesia and the marker administered 1 hour after surgery.
Skin incision alone had little effect on transit time.

Assay [5] deals with T2, tryptase. Conditions: cited from earlier work.
Another assay deals with trypsin. The experiment in a line: Ca2+ response of myocytes to trypsin pre-incubated with inhibitor. The assay is classed as cell-based. The conditions noted are these: 1 nM trypsin; 10 mg/ml SBTI, 60 min at 37° C. before assay. As to the method:
Ac. Ca^2+ Mobilization by Colonic Myocytes. The activation of PAR-2 in myocytes was assessed by measuring Ca^2+ mobilization, as described in Example 3. Trypsin and AP (SLIGRL-NH2) stimulated a prompt increase in [Ca^2+ ]i.
as §2

T2 sequence (Q15661 31-275): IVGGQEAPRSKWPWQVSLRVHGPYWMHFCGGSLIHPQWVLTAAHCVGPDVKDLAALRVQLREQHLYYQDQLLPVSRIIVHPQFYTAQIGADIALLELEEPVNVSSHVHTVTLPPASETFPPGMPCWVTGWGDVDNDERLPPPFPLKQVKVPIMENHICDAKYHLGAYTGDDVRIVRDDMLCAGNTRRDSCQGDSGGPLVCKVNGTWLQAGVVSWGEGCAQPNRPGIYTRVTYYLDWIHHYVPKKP

On to RPPGFSPFR [bradykinin], for which the “effect on spontaneous contractions” value in assay [1] (100 nM bradykinin) is listed as “marked inhibition of spontaneous contractions”.

With “tryptase: mast cell protease released upon degranulation”, the “effect on amplitude of spontaneous contractions” value in assay [1] (tryptase at concentrations of up to 90 nM) was “did not alter the amplitude of spontaneous contractions”. Besides, the EC50 in the assay with PAR-2 (colonic myocytes) was about 100 nM. Besides, the “fold less potent than trypsin (Ca2+ mobilization)” value with PAR-2 (colonic myocytes, tryptase vs trypsin) turned out to be 100 fold.

Regarding “substance P: used to induce degranulation of HMC-1 mast cells”, in the assay with PAR-2 (100 μM substance P), the “Ca2+ mobilization in myocytes” value is on record as “did not stimulate”.

With `COC(=O)[C@@H](N)CCCNC(=N)N[N+](=O)[O-]` [L-NAME, L-N^G -nitro arginine methyl ester], in assay [1] (100 μM L-NAME for 15 min), the “effect of pre-incubation on the effects of trypsin and AP” value is “did not prevent”.

Take `CCCCC[C@H](O)/C=C/[C@H]1[C@H](O)CC(=O)[C@@H]1C/C=C\CCCC(=O)O` [PGE2]: the “effect on colonic motility” value in assay [1] (30 nM PGE2) is recorded as “inhibited colonic motility”.

As to `CC(=O)N[C@@H](CC(C)C)C(=O)N[C@@H](CC(C)C)C(=O)N[C@H](C=O)CCCNC(=N)N` [leupeptin], the “inhibition of the [Ca2+]i response to HMC-1 mast cell filtrate” value at tryptase [2] (myocytes, filtrate of HMC-1 cells degranulated with substance P) was 46.5±4%. For the same molecule, on tryptase [3] (40 nM tryptase, 1 μM inhibitor, 5 min at room temperature before assay), the “Ca2+ response to tryptase after pre-incubation with inhibitor” value is “no Ca^2+ response”.

As for `N=C(N)c1ccc2nc(Cc3nc4ccc(C(=N)N)cc4[nH]3)[nH]c2c1` [BABIM, bis(5-amidino-2-benzimidazolyl) methane], on tryptase [2], the “inhibition of the [Ca2+]i response to HMC-1 mast cell filtrate” value is 46.5±1% and ~ 50%. The “Ca2+ response to tryptase after pre-incubation with inhibitor” value on tryptase [3] is reported as “no Ca^2+ response”.

In the case of `CN1CCC(=C2c3ccccc3CC(=O)c3sccc32)CC1` [ketotifen], the “effect on inhibition of GI transit produced by abdominal surgery” value in assay [4] (cecal manipulation) is “partially reversed”. For the same molecule, the “effect on transit time in unoperated animals” value in assay [4] (unoperated) is given as “little effect”.

Regarding `COc1ccc2c(c1)c(CC(=O)O)c(C)n2C(=O)c1ccc(Cl)cc1` [indomethacin], the “effect of pre-incubation on the response to trypsin and AP” value in assay [1] (1 μM indomethacin for 15 min) was “had no effect”.

For the molecule `NC1=N[C@H](O)[C@H]2[C@H]3O[C@]4(O)O[C@@H]([C@@H](O)[C@@]2(N1)[C@@H]4O)[C@]3(O)CO` [tetrodotoxin], in assay [1], the “effect on amplitude and frequency of contractions” value is “immediate and sustained increase”.

Regarding SLIGRL-NH2 [AP, SLIGRL-NH2], the concentration for a half-maximal effect (EC50) on PAR-2 (colonic myocytes) is about 1000 nM.

For the molecule HOE-140, the “effect on bradykinin-induced inhibition of spontaneous contractions” value in assay [1] (100 nM bradykinin, pre-incubation with 100 nM HOE-140 for 5 min) is recorded as “abolished”. Also, the “effect on the inhibition of colonic motility by trypsin and AP” value in assay [1] (HOE-140) was “had no effect”.

For the molecule `CC(C)(C)c1ccc(OC(=O)[C@H]2CC[C@H](CNC(=N)N)CC2)cc1` [GMCHA-OPhBut, trans-4-guanidinomethylcyclohexane-carboxylic acid 4-tert butylphenyl ester], at tryptase [5], the “concentrations that inhibit tryptase activity” value was 1 to 100 µM.

B1: SBTI: SBTI, pre-incubated with trypsin before assay; abbreviation not expanded (protein, UniProt P01070 25-205, looked up)
Trypsin inhibitor A: DFVLDNEGNPLENGGTYYILSDITAFGGIRAAPTGNERCPLTVVQSRNELDKGIGTIISSPYRIRFIAEGHPLSLKFDSFAVIMLCVGIPTEWSVVEDLPEGPAVKIGENKDAMDGWFRLERVSDDEFNNYKLVFCPQQAEDDKCGDIGISIDHDDGTRRLVVSKNKPLVVQFQKLDKESL
As for B1, the “Ca2+ response to trypsin after pre-incubation with inhibitor” value in the assay on trypsin was “no Ca^2+ response”.

B2: trypsin: protease that cleaves and activates PAR-2 (protein, UniProt P00760 24-246, looked up)
Serine protease 1: IVGGYTCGANTVPYQVSLNSGYHFCGGSLINSQWVVSAAHCYKSGIQVRLGEDNINVVEGNEQFISASKSIVHPSYNSNTLNNDIMLIKLKSAASLNSRVASISLPTSCASAGTQCLISGWGNTKSSGTSYPDVLKCLKAPILSDSSCKSAYPGQITSNMFCAGYLEGGKDSCQGDSGGPVVCSGKLQGIVSWGSGCAQKNKPGVYTKVCNYVSWIKQTIASN
On to B2, for which, in assay [1], the “effect on motility of tetrodotoxin-treated tissues” value is given as “inhibited this elevated motility” and the “fold more potent than AP (colonic motility)” value came out at 10 fold. For the same molecule, the “time to recovery of spontaneous activity after washing” value in assay [1] (1 μM trypsin for 5 min, then washed extensively) is over 6 h. For the same molecule, in assay [1] (3 μM trypsin), the “inhibition of mean amplitude at highest concentration” value is given as 60%. In addition, in assay [1] (colon strips (mucosa plus muscle)), the “threshold for inhibition of mean amplitude of spontaneous contractions” value came out at 300 nM. Further, the “effect on spontaneous contractions in the absence of the mucosa” value in assay [1] (colonic strips with mucosa removed) is “inhibited spontaneous contractions”. In assay [1] (read-out: EC50, reduction in mean amplitude of spontaneous contractions, colon strips (mucosa plus muscle)), the EC50 is about 500 nM. The “delay before inhibition of motility” value in assay [1] (trypsin at 1 μM, AP concentration not stated) was found to be 31 ± 5 s. Moreover, in the assay with PAR-2, the “fold more potent than AP (Ca2+ mobilization)” value is recorded as 1,000 fold. Also, the EC50 in the assay with PAR-2 (colonic myocytes) is about 1 nM.

Broadly, the EC50 is the concentration that produces a half-maximal response.
